What was measured:
cyclooxygenase COX-1 = target: T1, cyclooxygenase COX-1 (Homo sapiens, UniProt P23219); assay: Cyclooxygenase COX-1 inhibition in human platelets, PGE2 EIA (116010); assay type: cell-based; conditions: screened at 10 μM
T1 construct: host or cells: human platelets
Procedure: In these assays, in addition to the designations set forth above, IG-05 refers to resorcinol and IG-06 refers to orcinol.
To assess COX-1 inhibition, test compound and/or vehicle was incubated with human platelets (5×10^7/well) for 15 minutes at5 37° C. Calcium ionophore A23187 (10 μM) was added to induce the arachidonic acid cascade. After another 15 minutes incubation at 37° C., PGE2 levels in the supernatant were quantiated using the Amersham EIA kit. Compounds were screened at 10 μM.

[1] = tested on: arachidonic acid-induced aggregation of platelet rich plasma; assay: Arachidonic acid, platelet aggregation (412510); assay type: cell-based, rabbit; conditions: for ANT. (antagonist response), arachidonic acid platelet aggregation / AG. (agonist response), arachidonic acid platelet aggregation: 30 μM, platelet rich plasma, rabbit; for AG. (agonist response), arachidonic acid platelet aggregation: relative to 100 μM arachidonic acid
Procedure: (§1) Test compounds referred to above were evaluated for inhibition of platelet aggregation induced by adenosine diphosphate, arachidonic acid, phorbol ester and Platelet Activating Factor (PAF) at […]. The following methods were employed in this analysis, and reference compounds for the respective assays are indicated in Appendix 1:
Venous blood obtained from male or female New Zealand derived albino rabbits weighting 2.5-3 kg was mixed with one-tenth volume of trisodeium citrate (0.13M) and centrifuged at room temperature for 10 min at 220 g. Test substance (30 μM)-induced aggregation of the supernatant platelet rich plasma by 50 percent or more (≧50%) within 5 min, relative to 100 μM arachidonic acid response at 37° C. as measured by an optical aggregometer indicates possible agonist activity.
At a test substance concentration where no significant agonist activity is seen, ability to reduce the arachidonic acid-induced maximum non-reversible aggregation response by 50 percent or more (>50%) was indicative of antagonist activity.

[2] = tested on: PMA-induced aggregation of platelet rich plasma (phorbol ester receptor); assay: Phorbol ester, platelet aggregation (461500); assay type: cell-based, rabbit; conditions: for ANT. (antagonist response), phorbol ester platelet aggregation / AG. (agonist response), phorbol ester platelet aggregation: 30 μM, platelet rich plasma, rabbit; for AG. (agonist response), phorbol ester platelet aggregation: relative to PMA 0.5 μM
Procedure: as §1
(§2) Venous blood obtained from male or female New Zealand derived albino rabbits weighing 2.5-3 kg is mixed with one-tenth volume of trisodium citrate (0.13 M) and centrifuged at room temperature for 10 min at 220 g. Test substance (30 μM)-induced aggregation of the supernatant platelet rich plasma by 50 percent or more (≧50%) within 5 min, relative to control phorbol myristate acetate (PMA, 0.5 μM) response at 37° C. as measured by an optical aggregometer, indicates possible phorbol ester receptor agonist activity.
At a test substance concentration where no significant agonist activity is seen, ability to reduce the PMA (0.5 μM)-induced maximum non-reversible aggregation response by 50 percent or more (>50%) indicates phorbol ester receptor antagonist activity.

[3] = tested on: PAF-acether-induced aggregation of platelet rich plasma (PAF receptor); assay: PAF, platelet aggregation (463010); assay type: cell-based, rabbit; conditions: for ANT. (antagonist response), PAF platelet aggregation / AG. (agonist response), PAF platelet aggregation: 30 μM, platelet rich plasma, rabbit; for AG. (agonist response), PAF platelet aggregation: relative to 5 nM PAF-acether
Procedure: as §1
as §2, with “temperture” for “temperature”, “Substance” for “substance”, “5 nM platelet activating factor-acether (PAF-acether)” for “phorbol myristate acetate (PMA, 0.5 μM)”, “37[…]” for “37° C.”, “PAF” for “phorbol ester”
At a test substance concentration where no significant agonist activity is seen, ability to reduce the PAF-acether-induced maximum non-reversible aggregation response by 50 percent or more (≧50%) indicates PAF receptor antagonist activity.

[4] = tested on: adenosine diphosphate-induced aggregation of platelet rich plasma (ADP receptor); assay: Adenosine diphosphate, platelet aggregation (404010); assay type: cell-based, rabbit; conditions: for ANT. (antagonist response), ADP platelet aggregation / AG. (agonist response), ADP platelet aggregation: 30 μM, platelet rich plasma, rabbit; for AG. (agonist response), ADP platelet aggregation: relative to […] ADP
Procedure: as §1
Venous blood obtained from male or female New Zealand derived albino rabbits weighing 2.5-3 kg was mixed with one-tenth volume of trisodium citrate (0.13 M) and centrifuged at room temperature for 10 min at 220 g. Test substance (30 EM)-induced aggregation of the supernatant platelet rich plasma by 50 percent or more (>50%) more relative to 1.2 μM adenosine diphosphate control response at 37° C. as mearsured by an optical aggregometer, indicates possible ADP receptor agonist activity.
At a test substance concentration where no significant agonist activity is seen, ability to reduce the adenosine diphosphate-induced maximum non-reversible aggregation response by 50 percent or more (≧50%) was indicative of ADP receptor antagonist activity.

Cannabinoid CB1 = target: T2, Cannabinoid CB1 (Mus musculus, UniProt P47746); assay: Cannabinoid CB1 tissue assay, vas deferens (416000); assay type: cell-based
T2 construct: tissue 416000; host or cells: vas deferens
T2 sequence (P47746 whole entry): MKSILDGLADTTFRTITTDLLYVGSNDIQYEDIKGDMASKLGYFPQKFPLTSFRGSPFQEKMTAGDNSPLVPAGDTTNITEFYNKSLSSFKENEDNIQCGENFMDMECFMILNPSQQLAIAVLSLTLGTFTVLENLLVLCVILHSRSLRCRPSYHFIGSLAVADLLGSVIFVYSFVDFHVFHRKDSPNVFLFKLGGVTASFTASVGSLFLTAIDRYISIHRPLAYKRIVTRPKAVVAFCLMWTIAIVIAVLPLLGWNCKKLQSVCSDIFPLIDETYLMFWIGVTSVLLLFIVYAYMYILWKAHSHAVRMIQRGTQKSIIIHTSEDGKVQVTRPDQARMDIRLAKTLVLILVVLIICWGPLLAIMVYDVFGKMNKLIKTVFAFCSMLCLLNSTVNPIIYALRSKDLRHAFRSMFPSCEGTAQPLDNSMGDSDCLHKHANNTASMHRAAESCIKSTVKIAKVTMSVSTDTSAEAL

thromboxane A2 synthase = target: T3, thromboxane A2 synthase (Oryctolagus cuniculus, UniProt G1TAZ9); assay: Thromboxane A2 synthase inhibition, TXB2 radioimmunoassay (194000); assay type: biochemical, rabbit; conditions: screened at 100 μM
T3 sequence (G1TAZ9 1-530): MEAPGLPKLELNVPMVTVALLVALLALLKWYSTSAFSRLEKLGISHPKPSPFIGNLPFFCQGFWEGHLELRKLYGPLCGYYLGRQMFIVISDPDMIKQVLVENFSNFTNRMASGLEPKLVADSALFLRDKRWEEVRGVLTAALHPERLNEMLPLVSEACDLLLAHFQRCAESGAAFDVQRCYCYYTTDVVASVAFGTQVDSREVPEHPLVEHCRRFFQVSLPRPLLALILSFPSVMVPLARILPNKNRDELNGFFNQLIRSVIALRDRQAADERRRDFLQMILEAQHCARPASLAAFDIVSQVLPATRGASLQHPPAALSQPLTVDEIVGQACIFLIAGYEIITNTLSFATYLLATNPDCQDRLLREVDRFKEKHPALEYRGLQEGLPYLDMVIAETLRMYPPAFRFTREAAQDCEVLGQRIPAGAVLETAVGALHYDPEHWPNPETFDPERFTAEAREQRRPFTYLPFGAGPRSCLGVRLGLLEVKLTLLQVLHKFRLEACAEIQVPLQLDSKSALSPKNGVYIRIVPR
Procedure: Test compounds (IG-1 through IG-11) were evaluated for their ability to inhibit cyclooxygenase COX-1, cyclooxygenase COX-2, and thromboxane synthase. In these assays, in addition to the designations set forth above, IG-05 refers to resorcinol and IG-06 refers to orcinol.
To assess Thromboxane A2 synthase, thromboxane A2 synthase isolated from a microsomal fraction of rabbit platelets by conventional centrifugation was used. The test compound and/or vehicle was incubated with 1:200 dilution of thromboxane A2 synthase and 5 ng prostaglandin G2 as substrate in Tris buffer pH 7.5 for 30 minutes at 37° C. The thromboxane A2 formed is immediately converted to thromboxane B2, which was quantitated by a radioimmunoassay. Compounds are screened at 100 μM.

T1 sequence (P23219 24-599): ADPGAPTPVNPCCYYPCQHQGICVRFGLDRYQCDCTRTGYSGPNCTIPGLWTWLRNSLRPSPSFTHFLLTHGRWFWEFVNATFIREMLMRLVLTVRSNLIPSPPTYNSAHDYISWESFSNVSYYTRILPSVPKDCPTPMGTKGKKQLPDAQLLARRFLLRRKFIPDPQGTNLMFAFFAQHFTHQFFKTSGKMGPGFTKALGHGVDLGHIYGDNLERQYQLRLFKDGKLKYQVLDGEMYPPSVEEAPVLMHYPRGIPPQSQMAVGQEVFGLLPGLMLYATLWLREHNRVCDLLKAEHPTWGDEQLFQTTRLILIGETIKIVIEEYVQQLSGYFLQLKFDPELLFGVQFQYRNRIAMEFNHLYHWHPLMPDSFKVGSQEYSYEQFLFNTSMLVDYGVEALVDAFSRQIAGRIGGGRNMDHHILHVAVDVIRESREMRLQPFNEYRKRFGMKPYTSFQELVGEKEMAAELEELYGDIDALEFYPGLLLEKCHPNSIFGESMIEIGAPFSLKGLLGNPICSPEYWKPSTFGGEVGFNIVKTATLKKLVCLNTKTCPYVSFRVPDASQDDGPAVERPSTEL

COc1cc(C(C)(C)CCCC(C)C)cc(OC)c1O [IG-2, 4-(1,1,5-trimethylhexyl)-2,6-dimethoxyphenol]
COX-1 inhibition (in words) (cyclooxygenase COX-1): potent inhibitors of COX-1

COc1ccc2c(c1)c(CC(=O)O)c(C)n2C(=O)c1ccc(Cl)cc1 [Indomethacin, reference compound]
Concurrent RESP., reference compound, arachidonic acid platelet aggregation - Antagonist ([1]; 0.3 μM, batch 27731): 100

CCCCCCCCCCCCCC(=O)O[C@@H]1[C@@H](C)[C@@]2(O)[C@@H](C=C(CO)C[C@]3(O)C(=O)C(C)=C[C@@H]23)[C@@H]2C(C)(C)[C@]12OC(C)=O [PMA, phorbol myristate acetate, reference compound]
Concurrent RESP., reference compound, phorbol ester platelet aggregation - Agonist ([2]; 0.5 μM, batch 27699): 100

Cc1cc(O)cc(O)c1 [IG-6, orcinol]
COX-1 inhibition (in words) (cyclooxygenase COX-1): potent inhibitors of COX-1

CC1=CCC2C(C1)c1c(O)cc(C(C)(C)CCCC(C)C)cc1OC2(C)C (stereo not drawn) [IG-9, 3-Norpentyl-3-(1,1,5-trimethylhexyl)-Δ 8-tetrahydrocannabinol]
ANT. (antagonist response), arachidonic acid platelet aggregation [1]: 0% | AG. (agonist response), arachidonic acid platelet aggregation [1]: 0% | ANT. (antagonist response), PAF platelet aggregation [3]: 4% | AG. (agonist response), PAF platelet aggregation [3]: 0% | ANT. (antagonist response), phorbol ester platelet aggregation [2]: 4% | AG. (agonist response), phorbol ester platelet aggregation [2]: 0% | ANT. (antagonist response), ADP platelet aggregation [4]: 7% | AG. (agonist response), ADP platelet aggregation [4]: 0%

CCCCC/C=C\C/C=C\C/C=C\C/C=C\CCCC(=O)O [Arachidonic Acid, reference compound]
Concurrent RESP., reference compound, arachidonic acid platelet aggregation - Agonist ([1]; 100 μM, batch 27731): 100

CC(C)CCCC(C)(C)c1cc(O)cc(O)c1
melting point: 95 to 96 °C

CCCCCCCCCCCCCCCCOC[C@H](COP(=O)([O-])OCC[N+](C)(C)C)OC(C)=O [PAF, platelet activating factor-acether, reference compound]
Concurrent RESP., reference compound, PAF platelet aggregation - Agonist ([3]; 5 nM, batch 27927): 100

Cc1nnc2n1-c1sc(CCC(=O)N3CCOCC3)cc1C(c1ccccc1Cl)=NC2 [WEB-2086, reference compound]
Concurrent RESP., reference compound, PAF platelet aggregation - Antagonist ([3]; 0.3 μM, batch 27927): 97

CCCCC/C=C\C/C=C\C/C=C\C/C=C\CCCC(=O)NCCO [Anandamide, reference compound]
Concurrent RESP., reference compound, Cannabinoid CB1 - Agonist (Cannabinoid CB1; 0.1 μM, batch 27098): 100

Cc1ccc2c(c1)-c1c(O)cc(C(C)(C)CCCC(C)C)cc1OC2(C)C [IG-11, 3-Norpentyl-3-(1,1,5-trimethylhexyl)cannabinol]
AG. (agonist response), Cannabinoid CB1 (Cannabinoid CB1; 30 μM): 102% | ANT. (antagonist response), arachidonic acid platelet aggregation [1]: 0% | AG. (agonist response), arachidonic acid platelet aggregation [1]: 0% | Thromboxane synthase inhibition (in words) (thromboxane A2 synthase): significantly inhibit thromboxane synthase | ANT. (antagonist response), PAF platelet aggregation [3]: 11% | AG. (agonist response), PAF platelet aggregation [3]: 0% | ANT. (antagonist response), phorbol ester platelet aggregation [2]: 8% | AG. (agonist response), phorbol ester platelet aggregation [2]: 0% | ANT. (antagonist response), ADP platelet aggregation [4]: 0% | AG. (agonist response), ADP platelet aggregation [4]: 0%

COc1cc(C(C)(C)CCCC(C)C)cc(OC)c1OC [IG-7, 1-(1,1,5-Trimethylhexyl)-3,4,5-trimethoxybenzene]
AG. (agonist response), Cannabinoid CB1 (Cannabinoid CB1; 30 μM): −106% | ANT. (antagonist response), Cannabinoid CB1 (Cannabinoid CB1; 30 μM): 100% | ANT. (antagonist response), arachidonic acid platelet aggregation [1]: 0% | AG. (agonist response), arachidonic acid platelet aggregation [1]: 0% | ANT. (antagonist response), PAF platelet aggregation [3]: 4% | AG. (agonist response), PAF platelet aggregation [3]: 0% | ANT. (antagonist response), phorbol ester platelet aggregation [2]: 9% | AG. (agonist response), phorbol ester platelet aggregation [2]: 0% | ANT. (antagonist response), ADP platelet aggregation [4]: 11% | AG. (agonist response), ADP platelet aggregation [4]: 0%

CN[C@@H]1C[C@H]2O[C@@](C)([C@@H]1OC)n1c3ccccc3c3c4c(c5c6ccccc6n2c5c31)C(=O)NC4 [Staurosporine, reference compound]
Concurrent RESP., reference compound, phorbol ester platelet aggregation - Antagonist ([2]; 3 μM, batch 27699): 100

Nc1nc(Cl)nc2c1ncn2[C@@H]1O[C@H](CO)[C@@H](O)[C@H]1O [2-Chloroadenosine, reference compound]
Concurrent RESP., reference compound, ADP platelet aggregation - Antagonist ([4]; 10 μM, batch 27737): 90
